Patent publication US12053459B2, “CDK2 inhibitors and methods of using the same” (Cedilla Therapeutics, Inc., priority 2021, dated 2024)

Legend:
Kuramochi cells [1] = experiment: Incucyte cell proliferation assay, Kuramochi cells labeled with mApple-H2B; format: cell-based; conditions: class symbols A-D
Description: Kuramochi cells labeled with mApple-H2B and Kuramochi RB1−/− cells labeled with NucLight green (Sartorius, 4475) were co-plated on 384-well assay-ready plates along with test compounds at varying concentrations. Plates were placed in the IncuCyte® Sartorius and scanned at 0 and 72 hours. IncuCyte® software was used to count the number of fluorescent nuclei in each well. The fold change in cell count from 0 to 72 hours in wells treated with increasing compounds concentrations (10 pts, ½ log dilution, 20 uM top concentration) was normalized to DMSO control wells. The normalized cell counts were fit with dose response curves and a GI50 was calculated.

CDK2/Cyclin E1(14-475) [2] = target: T1, CDK2/Cyclin E1(14-475) (Homo sapiens, UniProt P24941); experiment: Caliper LabChip EZ Reader mobility shift assay, inhibition of CDK2/Cyclin E1 activity; format: biochemical; conditions: class symbols A-D
Method in brief: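 Mobility-shift readout of fluorescent peptide (1.5 μM final) phosphorylation by 2.5 nM CDK2/Cyclin E1(14-475) at 100 μM ATP, pH 7.5. Compounds pre-incubated 30 min with enzyme before substrate addition; 100-min reaction halted by EDTA, normalized % activity fitted to four-parameter curve for IC50.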

Kuramochi cells [3] = experiment: BrdU cell proliferation assay (colorimetric ELISA), Kuramochi cells; format: cell-based; conditions: class symbols A-D
Method in brief: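 Proliferation was read as BrdU incorporation: a 1 h pulse, then fixation and peroxidase-antibody ELISA at 450 nm, with values normalized to DMSO after empty-well subtraction. Treatment lasted 4 days on Kuramochi cells seeded at 2,000/well, using four 3-fold compound dilutions from 10 mM stocks. RB^KO Kuramochi cells were run in parallel for specificity.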

CDK2/Cyclin E1(14-475) [4] = target: T1, CDK2/Cyclin E1(14-475); experiment: HotSpot kinase inhibition assay (radiometric, Reaction Biology Corporation); format: biochemical; conditions: 10 μM ATP, class symbols A-D
Description: Inhibition of a select panel of CDK2/CCNE1 activities in the presence of compounds of the present disclosure was evaluated using the HotSpot™ assay (proprietary to Reaction Biology Corporation). In the assay, activated CDK2/Cyclin E1 catalyzes the transfer of radioactive phosphate to amino acid residues of peptide or protein substrates, which are detected radiometrically. […] Reactions contained 20 mM HEPES pH 7.5, 10 mM MgCl2, 1 mM EGTA, 2 mM DTT, 0.02% Brij35, 0.02 mg/mL BSA, 0.1 mM Na3VO4, 1% DMSO, 1.5 nM CDK2/Cyclin E1(14-475), 10 μM ATP, and 20 μM Histone H1 protein isolated from calf thymus (Sigma).
CDK2/Cyclin E1 […] and Histone H1 were mixed in reaction buffer. To this mixture, was added dose titrations of inhibitor compounds in 100% DMSO by acoustic transfer. The compound mixtures were incubated for 20 minutes, then the kinase reactions were initiated by the addition of a mixture of ATP and ^33P ATP for final concentrations of 10 μM total ATP, 20 μM Histone H1, and 1.5 nM CDK2/Cyclin E1 (14-475). The reactions were carried out for 120 minutes, then spotted on a P81 ion exchange filter paper, and extensively washed with 0.75% phosphoric acid. The resulting radioactive counts were normalized to yield % activity, plotted against compound concentration, and fit to a four-parameter equation to determine the IC50 for each compound.

Structure (SMILES) | IC50 (CDK2/Cyclin E1(14-475) [2]) [µM] | IC50 (CDK2/Cyclin E1(14-475) [4]) [µM] | GI50 (Kuramochi cells [1]; 72 h) [µM] | IC50 (Kuramochi cells [3]) [µM] | GI50 (Kuramochi cells [1]; 72 hours) [µM]
CNC(=O)C(NC(=O)C1CN(C(=O)Cc2c[nH]c3cc(Cl)ccc23)CC2CN(C(=O)c3ccc(OC(C)C)c(OC)c3)CC21)[C@H](C)OCc1ccccc1 (single isomer, unassigned) [I-145] | ≤ 0.5 | – | 1 to 10 | 0.5 to 5 | –
CNC(=O)[C@@H](NC(=O)C1CN(C(=O)Cc2c[nH]c3cc(Cl)ccc23)CC2CN(C(=O)c3ccc(OC(C)C)c(OC)c3)CC21)[C@H](C)OCc1ccccc1 (single isomer, unassigned) [I-146] | ≤ 0.5 | – | 10 to 20 | > 10 | –
CNC(=O)[C@@H](NC(=O)C1CN(C(=O)Cc2c[nH]c3cc(Cl)ccc23)CC2CN(C(=O)c3ccc(OC(C)C)c(OC)c3)CC21)[C@H](C)OCc1ccccc1 (single isomer, unassigned) [I-147] | > 10 | – | – | > 10 | > 20
CNC(=O)[C@@H](NC(=O)C1CN(C(=O)Cc2c[nH]c3cc(Cl)ccc23)CC2CN(C(=O)c3ccc(OC(C)C)c(OC)c3)CC21)[C@H](C)OCc1ccccc1 (single isomer, unassigned) [I-148] | 0.5 to 5 | – | – | > 10 | > 20
COc1cc(C(=O)N2CC3CN(C(=O)Cc4c[nH]c5cc(Cl)ccc45)CC(C(=O)NCc4ccc(C)nn4)C3C2)ccc1OC(C)C (single isomer, unassigned) [I-261] | > 10 | – | > 20 | – | –
COc1cc(C(=O)N2CC3CN(C(=O)Cc4c[nH]c5cc(Cl)ccc45)CC(C(=O)NCc4ccc(C)nn4)C3C2)ccc1OC(C)C (single isomer, unassigned) [I-262] | > 10 | – | – | – | > 20
CNC(=O)[C@H](CCCc1ccccc1)NC(=O)C1CN(C(=O)Cc2c[nH]c3cc(Cl)ccc23)CC2CN(C(=O)c3cncc(OC)n3)CC21 (some centres unmarked) [I-42] | – | > 100 | – | > 10 | –
CNC(=O)[C@H](CCCc1ccccc1)NC(=O)C1CN(C(=O)Cc2c[nH]c3cc(Cl)ccc23)CC2CN(C(=O)c3cc(C4CC4)on3)CC21 (some centres unmarked) [I-81] | – | 10 to 100 | – | > 10 | –
CNC(=O)[C@@H](NC(=O)C1CN(C(=O)Cc2c[nH]c3cc(Cl)ccc23)CC2CN(C(=O)c3ccc(OC(C)C)c(OC)c3)CC21)[C@H](C)OCc1ccccc1 (some centres unmarked) [I-106] | ≤ 0.5 | – | 1 to 10 | 0.5 to 5 | –
CNC(=O)[C@H](Cc1ccccc1)NC(=O)C1CN(C(=O)Cc2c[nH]c3cc(Cl)ccc23)CC2CN(C(=O)c3ccc(OC(C)C)c(OC)c3)CC21 (some centres unmarked) [I-122] | – | 10 to 100 | – | – | –
CNC(=O)[C@H](Cc1ccc(O)cc1)NC(=O)C1CN(C(=O)Cc2c[nH]c3cc(Cl)ccc23)CC2CN(C(=O)c3ccc(OC(C)C)c(OC)c3)CC21 (some centres unmarked) [I-123] | – | 10 to 100 | – | – | –
CNC(=O)[C@@H](C)NC(=O)C1CN(C(=O)Cc2c[nH]c3cc(Cl)ccc23)CC2CN(C(=O)c3ccc(OC(C)C)c(OC)c3)CC21 (some centres unmarked) [I-124] | – | > 100 | – | > 10 | –
CNC(=O)[C@H](C)NC(=O)C1CN(C(=O)Cc2c[nH]c3cc(Cl)ccc23)CC2CN(C(=O)c3ccc(OC(C)C)c(OC)c3)CC21 (some centres unmarked) [I-125] | – | 10 to 100 | – | – | –
CNC(=O)[C@H](CCCc1ccccc1)NC(=O)C1CN(C(=O)Cc2c[nH]c3cccc(Cl)c23)CC2CN(C(=O)c3ccc(OC(C)C)c(OC)c3)CC21 (some centres unmarked) [I-221] | – | > 100 | – | > 10 | –
CNC(=O)[C@H](CCCc1ccccc1)NC(=O)C1CN(C(=O)Cc2c[nH]c3c(Cl)cccc23)CC2CN(C(=O)c3ccc(OC(C)C)c(OC)c3)CC21 (some centres unmarked) [I-222] | – | 1 to 10 | – | – | –
CNC(=O)[C@H](CCCc1ccccc1)NC(=O)C1CN(C(=O)Cc2c[nH]c3cc(OC)ccc23)CC2CN(C(=O)c3ccc(OC(C)C)c(OC)c3)CC21 (some centres unmarked) [I-235] | – | 1 to 10 | – | – | –
CNC(=O)[C@@H](NC(=O)C1CN(C(=O)Cc2c[nH]c3cc(Cl)ccc23)CC2CN(C(=O)c3cc(-c4ccccc4)n[nH]3)CC21)[C@H](C)OCC1CCCCC1 (stereo partly drawn) [I-249, 5-(2-(6-chloro-1H-indol-3-yl)acetyl)-N-((2S,3S)-3-(cyclohexylmethoxy)-1-(methylamino)-1-oxobutan-2-yl)-2-(3-phenyl-1H-pyrazole-5-carbonyl)octahydro-1H-pyrrolo[3,4-c]pyridine-7-carboxamide] | > 10 | – | – | > 10 | –
CNC(=O)[C@@H](NC(=O)C1CN(C(=O)Cc2c[nH]c3cc(Cl)ccc23)CC2CN(C(=O)c3cc(-c4ccccc4)n[nH]3)CC21)[C@H](C)OCc1ccccc1 (some centres unmarked) [I-250] | 0.5 to 5 | – | – | > 10 | –
CNC(=O)[C@@H](NC(=O)C1CN(C(=O)Cc2c[nH]c3cc(Cl)ccc23)CC2CN(C(=O)c3cc(-c4ccccc4)n[nH]3)CC21)[C@@H](C)OCC1CCCCC1 (some centres unmarked) [I-251] | > 10 | > 100 | – | 5 to 10 | –
CNC(=O)[C@@H](NC(=O)C1CN(C(=O)Cc2c[nH]c3cc(Cl)ccc23)CC2CN(C(=O)c3cc(-c4ccccc4)n[nH]3)CC21)[C@@H](C)OCc1ccccc1 (some centres unmarked) [I-252] | > 10 | – | – | > 10 | –
CNC(=O)[C@H](CCCc1ccccc1)NC(=O)C1CN(C(=O)Cc2ccnc3ccccc23)CC2CN(C(=O)c3ccc(OC(C)C)c(OC)c3)CC21 (stereo partly drawn) [I-253, 2-(4-isopropoxy-3-methoxybenzoyl)-N—((S)-1-(methylamino)-1-oxo-5-phenylpentan-2-yl)-5-(2-(quinolin-4-yl)acetyl)octahydro-1H-pyrrolo[3,4-c]pyridine-7-carboxamide] | > 10 | – | – | > 10 | –
COC(=O)[C@@H](NC(=O)C1CN(C(=O)Cc2c[nH]c3cc(Cl)ccc23)CC2CN(C(=O)c3ccc(OC(C)C)c(OC)c3)CC21)[C@H](C)OCc1ccccc1 (stereo partly drawn) [I-255, methyl (2S,3S)-3-(benzyloxy)-2-(5-(2-(6-chloro-1H-indol-3-yl)acetyl)-2-(4-isopropoxy-3-methoxybenzoyl)octahydro-1H-pyrrolo[3,4-c]pyridine-7-carboxamido)butanoate] | ≤ 0.5 | – | – | 0.5 to 5 | –

The next lines start with results.

IC50 (CDK2/Cyclin E1(14-475) [2]) [µM] | IC50 (CDK2/Cyclin E1(14-475) [4]) [µM] | Structure (SMILES) | GI50 (Kuramochi cells [1]; 72 h) [µM] | IC50 (Kuramochi cells [3]) [µM] | GI50 (Kuramochi cells [1]; 72 hours) [µM]
– | 10 to 100 | CNC(=O)[C@H](CCCc1ccccc1)NC(=O)C1CN(C(=O)Cc2c[nH]c3cc(Cl)ccc23)CC2CN(C(=O)c3ccc4[nH]c(C)cc4c3)CC21 (some centres unmarked) [I-2] | – | > 10 | –
> 10 | > 100 | CNC(=O)[C@H](CCCc1ccccc1)NC(=O)C1CN(C(=O)Cc2c[nH]c3cc(Cl)ccc23)CC2CN(C(=O)c3cc(-c4ccccc4)on3)CC21 (some centres unmarked) [I-13] | – | 5 to 10 | –
– | > 100 | CNC(=O)[C@H](CCCc1ccccc1)NC(=O)C1CN(C(=O)Cc2c[nH]c3cc(Cl)ccc23)CC2CN(C(=O)c3ccc4nccnc4c3)CC21 (some centres unmarked) [I-17] | – | > 10 | –
> 10 | ≤ 1 | CNC(=O)[C@H](CCCc1ccccc1)NC(=O)C1CN(C(=O)Cc2c[nH]c3cc(Cl)ccc23)CC2CN(C(=O)c3cc(-c4ccccc4)[nH]n3)CC21 (some centres unmarked) [I-19] | – | 0.5 to 5 | –
– | > 100 | CNC(=O)[C@H](CCCc1ccccc1)NC(=O)C1CN(C(=O)Cc2c[nH]c3cc(Cl)ccc23)CC2CN(C(=O)c3ccc(O)c(OC)c3)CC21 (some centres unmarked) [I-32] | – | > 10 | –
– | > 100 | CNC(=O)[C@H](CCCc1ccccc1)NC(=O)C1CN(C(=O)Cc2c[nH]c3cc(Cl)ccc23)CC2CN(C(=O)c3cccc(Oc4ccccc4)c3)CC21 (some centres unmarked) [I-35] | – | > 10 | –
– | 1 to 10 | CNC(=O)[C@H](CCCc1ccccc1)NC(=O)C1CN(C(=O)Cc2c[nH]c3cc(Cl)ccc23)CC2CN(C(=O)c3ccccc3)CC21 (some centres unmarked) [I-50] | – | > 10 | –
– | > 100 | CNC(=O)[C@H](CCCc1ccccc1)NC(=O)C1CN(C(=O)Cc2c[nH]c3cc(Cl)ccc23)CC2CN(C(=O)c3ccc4[nH]nnc4c3)CC21 (some centres unmarked) [I-62] | – | > 10 | –
– | 10 to 100 | CNC(=O)[C@H](CCCc1ccccc1)NC(=O)C1CN(C(=O)Cc2c[nH]c3cc(Cl)ccc23)CC2CN(C(=O)c3cnc4nccn4c3)CC21 (some centres unmarked) [I-64] | – | > 10 | –
– | 10 to 100 | CCOc1cccc(C(=O)N2CC3CN(C(=O)Cc4c[nH]c5cc(Cl)ccc45)CC(C(=O)N[C@@H](CCCc4ccccc4)C(=O)NC)C3C2)c1 (some centres unmarked) [I-67] | – | – | –
– | > 100 | CNC(=O)[C@H](CCCc1ccccc1)NC(=O)C1CN(C(=O)Cc2c[nH]c3cc(Cl)ccc23)CC2CN(C(=O)c3ccc4c(c3)OCCO4)CC21 (some centres unmarked) [I-77] | – | > 10 | –
